The series in a line: solvent given as SMILES.

“And” between values parts separate entries of the source, which are not always exact repeats. Identical values can stand only once.

Results on 45 compounds are retold here after the Deep4Chem optical property database.

`Cc1ccc(C(=O)c2c(C)c3ccc4cccc5c6cccc7ccc2c(c76)c3c45)cc1` yielded an emission maximum (in ClCCl) of 450 nm.

As to `c1ccc(-c2cc(-c3ccccc3)[o+]c(-c3ccccc3)c2)cc1`, the emission maximum by setting is: (in CC#N) 465 nm; (in ClCCCl) 463 nm.

In the case of `c1ccc(Cc2c3ccc(=[N+]4CCCCC4)cc-3oc3cc(N4CCCCC4)ccc23)cc1`, where the note is “in ClCCl”, the emission maximum was 582 nm.

Compound `CCCCCCCCOc1ccc(-c2c3c4n(c(-c5ccc(OCCCCCCCC)cc5)c3c3n2[B-](F)(F)[n+]2c(ccc5cc(C(C)(C)C)ccc52)C=3C#N)[B-](F)(F)[n+]2c(ccc3cc(C(C)(C)C)ccc32)C=4C#N)cc1` registered an emission maximum (in ClC(Cl)Cl) of 773 nm.

Where the note is “in O”, `COc1cc(C(=O)O)cc(OC)c1O` yielded an emission maximum of 333 nm.

`CC[Si](CC)(CC)Oc1cccc(O[Si](CC)(CC)CC)c1-c1c2ccccc2c(-c2c(O[Si](CC)(CC)CC)cccc2O[Si](CC)(CC)CC)c2ccccc12` yielded an emission maximum (in C1CCCCC1) of 432 nm.

`CON(OC)c1cc2c3cc(-c4c(C)cc(C)cc4C)cc4c5cc(-c6c(C)cc(C)cc6C)cc6c7cc(B(c8c(C)cc(C)cc8C)c8c(C)cc(C)cc8C)cc8c9cc(-c%10c(C)cc(C)cc%10C)cc%10c%11cc(-c%12c(C)cc(C)cc%12C)cc%12c(c1)c2c1c(c43)c(c65)c(c78)c(c9%10)c1c%11%12`: the emission maximum by setting is: (in C1CCOC1) 591 nm; (in CC(C)=O) 615 nm; (in CCCCCC) 490 nm; (in Cc1ccccc1) 510 nm; (in ClC(Cl)Cl) 545 nm; (in ClCCl) 585 nm.

`COc1ccccc1-c1nc2c3ccccc3c3ccccc3c2n1-c1ccc(C)cc1`: for the setting “in Cc1ccccc1”, the emission maximum is on record as 371 nm.

Consider `CCCCCCc1ccsc1-c1ccc(-c2sc(C(=O)O)cc2CCCCCC)s1`, for which the emission maximum is, setting by setting: (in CC(C)=O) 468 nm; (in CCCCCC) 458 nm; (in CCO) 451 nm; (in CO) 451 nm; (in ClCCl) 479 nm; (in O) 490 nm.

On to `CC(C)(C)c1ccc2c(c1)c1cc(C(C)(C)C)ccc1n2-c1ccc(C#Cc2cccc(C#Cc3ccc(-n4c5ccc(C(C)(C)C)cc5c5cc(C(C)(C)C)ccc54)cc3)c2)cc1`, for which the emission maximum is, setting by setting: (in CC#N) 435 nm; (in CCCCC) 359 nm; (in CO) 426 nm; (in Cc1ccccc1) 379 nm; (in ClC(Cl)Cl) 400 nm; (in ClCCl) 416 nm.

Take `COc1ccc2c3c(c4ccc(OC)cc4c2c1)C(C)(C)c1ccccc1-3`: the emission maximum (in C1CCCCC1) came to 391 nm.

`CC1=CC(C)=[N+]2C1=C(c1ccc(-c3ccc(OS(=O)(=O)c4ccc([N+](=O)[O-])cc4[N+](=O)[O-])cc3)s1)c1c(C)cc(C)n1[B-]2(F)F`: the emission maximum reads like this: (in CO) 523 nm; (in Cc1ccccc1) 530 nm; (in ClCCl) 528 nm.

For the compound `Fc1ccc(C#Cc2c(C#Cc3ccc(F)cc3)c(C#Cc3ccc(F)cc3)c(C#Cc3ccc(F)cc3)c(C#Cc3ccc(F)cc3)c2C#Cc2ccc(F)cc2)cc1`, under “in ClCCl”, the emission maximum came out at 450 nm.

On to `CN(C)c1ccc2[c](c1)[Ge]([CH3])([CH3])[C]1=CC(=[N+](C)C)C=CC1=C2`, for which the emission maximum (in O) turned out to be 634 nm.

The compound `CCCCN1C(=O)c2cc(Oc3ccc(C(C)(C)C)cc3)c3c4c(Oc5ccc(C(C)(C)C)cc5)c(Oc5ccc(C(C)(C)C)cc5)c5c6c(cc(Oc7ccc(C(C)(C)C)cc7)c(c7c(Oc8ccc(C(C)(C)C)cc8)c(Oc8ccc(C(C)(C)C)cc8)c(c2c37)C1=O)c64)C(=O)N(CCCC)C5=O` registered an emission maximum (in ClC(Cl)Cl) of 610 nm.

Regarding `CC1=[N+]2C(=C(NCc3ccccc3)c3ccc(C)n3[B-]2(F)F)C=C1c1cc2n(c1)[B-](F)(F)[N+]1=CC=CC1=C2c1c(C)cc(C)cc1C`, the emission maximum is reported as 636 nm (in C1CCCCC1) and 700 nm (in CCOC(C)=O).

`CCCCN1C(=O)C2=C(c3ccc(Br)cc3)NC(=O)C2=C1c1ccc(Br)cc1` returned an emission maximum (in ClCCl) of 531 nm.

In turn, `CCOC(=O)/C=C/C1=C(c2ccc(C)cc2)C2=Nc3c(-c4ccc(C)cc4)c(Br)c(-c4ccc(C)cc4)n3[B-](F)(F)[N+]2=C1c1ccc(C)cc1` yielded an emission maximum (in ClC(Cl)Cl) of 703 nm.

As to `CC(C)[Si](C#Cc1ccc(C#Cc2c3cc4ccccc4cc3c(C#C[Si](C(C)C)(C(C)C)C(C)C)c3cc4ccccc4cc23)cc1)(C(C)C)C(C)C`, the emission maximum (in ClCCl) turned out to be 668 nm.

As to `Cc1ccc2c(c1)C(c1ccccc1)(c1ccccc1)c1cc(C)ccc1N2c1cc(C(C)C)c(B2c3ccccc3Sc3ccccc32)c(C(C)C)c1`, the emission maximum was 487 nm (in Cc1ccccc1) and 485 nm (in O=P(c1ccccc1)(c1ccccc1)c1ccc2oc3ccc(P(=O)(c4ccccc4)c4ccccc4)cc3c2c1).

Compound `COc1ccc(C#Cc2nc3ccccc3nc2-c2ccn(-c3ccccc3)c2)cc1` returned an emission maximum (in ClCCl) of 474 nm.

`C1=C(c2ccccc2)C(c2ccccc2)=CC1c1ccccc1` yielded an emission maximum (in C1CCOC1) of 345 nm.

Consider `CN(C)c1ccc(/C=C/c2cc[n+](CCCCC[n+]3ccc(/C=C/c4ccc(N(C)C)cc4)cc3)cc2)cc1`, for which the emission maximum reads like this: (in CC1COC(=O)O1) 603 nm; (in CC#N) 605 nm; (in CC(C)=O) 604 nm; (in CC(C)O) 593 nm; (in CCO) 598 nm; (in CN(C)C=O) 607 nm. This compound also displayed an emission maximum (in CO) of 600 nm; an emission maximum (in CS(C)=O) of 610 nm; an emission maximum (in ClC(Cl)Cl) of 574 nm; an emission maximum (in O) of 597 nm; an emission maximum (in c1ccncc1) of 596 nm.

As for `O=C1c2ccccc2C2=Cc3ccccc3B(O)N12`, the emission maximum reads like this: (in CC#N) 432 nm; (in CO) 430 nm; (in CS(C)=O) 438 nm; (in ClC(Cl)Cl) 437 nm.

`Oc1ccc(-c2cccs2)cc1-c1nc2ccccc2s1` registered an emission maximum (in CCO) of 428 nm, an emission maximum (in ClCCl) of 405 nm and an emission maximum (in O) of 566 nm.

With `C[Si](C)(C)c1ccc(-c2ccc(-c3ccc(-c4ccc(-c5ccc([Si](C)(C)C)s5)s4)c4nsnc34)s2)s1`, under “in C1CCOC1”, the emission maximum is 656 nm.

`CC1(C)CC(/C=C/c2ccc(-n3cncn3)cc2)=CC(=C(C#N)C#N)C1`: the emission maximum is, setting by setting: (in C1CCOC1) 520 nm; (in CC#N) 522 nm; (in CCO) 518 nm; (in CCOC(C)=O) 515 nm; (in ClCCl) 518 nm; (in c1ccccc1) 511 nm.

For the compound `O=S1(=O)C2=C(c3ccccc31)C1(C3=C(c4ccccc41)S(=O)(=O)c1ccccc13)c1ccccc12`, the emission maximum (in ClCCl) was determined as 444 nm.

For the setting “in ClCCl”, `CCCCC(CC)Cn1c2cc(C#N)ccc2c2ccc(C#Cc3ccc4ccc5cccc6ccc3c4c56)cc21` (stereo unspecified) came in with an emission maximum of 420 nm.

In the case of `C[N+]1=C(/C=C/C=C2/N(CCC[N+](C)(C)C)c3ccc(Br)cc3C2(C)C)C(C)(C)c2ccccc21`, the emission maximum (in CS(C)=O) stood at 568 nm.

Consider `Cc1ccc2nc3c(=O)n(C)c(=O)nc-3n(C)c2c1`, for which the emission maximum (in CC#N) was 518 nm.

Consider `Brc1ccc(N(c2ccc(/C=C/c3ccncn3)cc2)c2ccc(/C=C/c3ccncn3)cc2)cc1`, for which, for the setting “in ClCCl”, the emission maximum was 555 nm.

For `O=C1[C@@H]2[C@H](C(=O)N1c1cccc3cc4ccccc4cc13)[C@@H]1C=C[C@H]2C1`, the emission maximum (in ClC(Cl)Cl) is 392 nm.

As to `COC(=O)/C(C#N)=c1\s/c(=c2/s/c(=C(/C#N)C(=O)OC)c3cc(-c4ccc(OC)cc4)sc23)c2sc(-c3ccc(OC)cc3)cc12`, where the note is “in Cc1ccccc1”, the emission maximum is recorded as 680 nm.

On to `Clc1ccc(-c2nc3ccccc3c3cc4ccccn4c23)s1`, for which the emission maximum (in CS(C)=O) was found to be 523.5 nm.

`CC(C)(C)c1ccc2oc3nc4oc5cc(-n6c7ccccc7c7ccccc76)ccc5c4cc3c2c1` registered an emission maximum (in ClC(Cl)Cl) of 396 nm.

Take `CN(C)c1ccc2nc(-c3ccccc3)sc2c1`: the emission maximum runs as follows: (in C1CCCCC1) 393 nm; (in CC#N) 474 nm and 475 nm; (in CC(C)O) 468 nm and 488.03 nm; (in CO) 484 nm and 483 nm; (in CS(C)=O) 486 nm and 486.82 nm; (in ClC(Cl)Cl) 442 nm and 443 nm. Also, the emission maximum (in c1ccccc1) was 429 nm and 441.38 nm.

`CC1=C(c2cccs2)C(C)=[N+]2C1=C(c1ccc(OS(=O)(=O)c3ccc([N+](=O)[O-])cc3[N+](=O)[O-])cc1)c1c(C)c(-c3cccs3)c(C)n1[B-]2(F)F`: the emission maximum worked out at 609 nm (in CO), 608 nm (in Cc1ccccc1) and 607 nm (in ClCCl).

As for `F[Si-](F)(c1ccccc1)(c1ccccc1)c1c2ccccc2cc2ccccc12`, the emission maximum (in C1CCOC1) worked out at 399 nm.

In the case of `Cc1ccc(/C=C/c2ccccc2-[n+]2noc([O-])c2C)cc1`, the emission maximum reads like this: (in C1CCCCC1) 348 nm; (in CC#N) 450 nm.

As to `CCC1=C(C)C2=Cc3c(I)c(I)cn3[B-](F)(F)[N+]2=C1C`, the emission maximum (in C1CCCCC1) was found to be 537 nm; the emission maximum (in CC(C)=O) turned out to be 544 nm; the emission maximum (in CCO) turned out to be 541.5 nm; the emission maximum (in CCOC(C)=O) amounted to 539.5 nm; the emission maximum (in CO) was determined as 541.5 nm; the emission maximum (in OCC(F)(F)F) came to 538 nm.

`COc1ccc(C2=CC(c3ccccc3)=C(c3ccccc3)C2)c2ccccc12` came in with an emission maximum (in ClCCl) of 479 nm.

For the compound `COc1ccc2c(-c3nc(-c4cccc(C)c4)no3)cc(=O)oc2c1`, the emission maximum reads like this: (in CCO) 464 nm; (in ClC(Cl)Cl) 450 nm.

Take `C[C@]12SC(=O)C=C1c1nc(-c3ccccc3O)[nH]c1C1=CC(=O)S[C@@]12C`: the emission maximum (in CC#N) was 407 nm.

Regarding `CC(=O)c1ccc(-c2nc3ccc(N(C)C)c(Br)c3s2)cc1`, the emission maximum is, setting by setting: (in C1CCCCC1) 424 nm; (in CC#N) 568 nm; (in CC(C)O) 580.16 nm; (in CO) 622 nm; (in CS(C)=O) 563.56 nm; (in ClC(Cl)Cl) 505 nm. The emission maximum (in c1ccccc1) is 472.87 nm.
